This is an account of results in patent publication US20230372498A1, “PLK1 SELECTIVE DEGRADATION INDUCING COMPOUND” (UPPTHERA, priority 2020, published 2023).

The structures appear in SMILES notation. Like-named read-outs stand apart in the source and are kept apart here.

The target in the test is T1, PLK1 (Homo sapiens, UniProt P53350).
T1 construct: endogenous in cells; host or cells: HeLa
The experiment in a line: PLK1 protein degradation in HeLa cells, Western blotting (PLK1/GAPDH ratio). Format: cell-based. The note with it: 6 hours compound incubation; for DC50: measured only if the grade of Dmax is A or B; for Dmax: thymidine block and release, 10 points three-fold from 3 μM, PLK1 to GAPDH ratio. The procedure, abridged:
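PLK1 level measured by Western blot as PLK1/GAPDH in HeLa lysates (15 μg protein per lane). Cells were blocked with 2 mM thymidine 24 h, released 4 h, and exposed 6 h to compound, 10 concentrations, 3-fold steps, top 3 μM.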

T1 sequence (P53350 whole entry): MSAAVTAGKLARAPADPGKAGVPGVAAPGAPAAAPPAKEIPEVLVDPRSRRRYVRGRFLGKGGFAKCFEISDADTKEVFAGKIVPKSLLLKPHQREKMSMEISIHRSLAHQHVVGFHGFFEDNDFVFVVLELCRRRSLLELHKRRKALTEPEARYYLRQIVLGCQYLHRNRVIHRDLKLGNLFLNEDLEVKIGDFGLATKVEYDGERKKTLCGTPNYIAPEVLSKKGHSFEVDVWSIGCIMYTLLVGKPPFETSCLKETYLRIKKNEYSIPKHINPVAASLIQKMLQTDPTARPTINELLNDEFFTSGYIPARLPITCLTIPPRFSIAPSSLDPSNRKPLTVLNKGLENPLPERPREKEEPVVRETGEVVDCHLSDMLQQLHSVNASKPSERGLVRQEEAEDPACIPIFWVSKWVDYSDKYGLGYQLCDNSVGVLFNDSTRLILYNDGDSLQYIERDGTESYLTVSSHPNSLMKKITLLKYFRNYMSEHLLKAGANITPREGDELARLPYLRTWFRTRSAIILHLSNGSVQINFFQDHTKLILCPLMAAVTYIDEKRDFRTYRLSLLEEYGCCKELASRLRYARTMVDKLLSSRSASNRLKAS

`COc1cc(C(=O)NC2CCN(CCCOCCCNc3cccc4c3C(=O)N(C3CCC(=O)NC3=O)C4=O)CC2)c(F)cc1Nc1ncc2c(n1)N(C1CCCC1)CC(F)(F)C(=O)N2C` (stereo not drawn) [Compound 18, 4-((9-cyclopentyl-7,7-difluoro-5-methyl-6-oxo-6,7,8,9-tetrahydro-5H-pyrimido[4,5-b][1,4]diazepin-2-yl)amino)-N-(1-(3-(3-((2-(2,6-dioxopiperidin-3-yl)-1,3-dioxoisoindolin-4-yl)amino)propoxy)propyl)piperidin-4-yl)-2-fluoro-5-methoxybenzamide]: the DC50 was ≤ 500 nM. Moreover, the Dmax (read-out: Dmax) lay within 60 to 80%.

As to `COc1cc(C(=O)NC2CCCN(CCOCCNc3cccc4c3C(=O)N(C3CCC(=O)NC3=O)C4=O)C2)c(F)cc1Nc1ncc2c(n1)N(C1CCCC1)CC(F)(F)C(=O)N2C` (stereo not drawn) [Example 105, 4-((9-cyclopentyl-7,7-difluoro-5-methyl-6-oxo-6,7,8,9-tetrahydro-5H-pyrimido[4,5-b][1,4]diazepin-2-yl)amino)-N-(1-(2-(2-((2-(2,6-dioxopiperidin-3-yl)-1,3-dioxoisoindolin-4-yl)amino)ethoxy)ethyl)piperidin-3-yl)-2-fluoro-5-methoxybenzamide], the DC50 is ≤ 500 nM. Where the note is “read-out: Dmax”, the Dmax lay within 60 to 80%. On the same counts, the results for `COc1cc(C(=O)NC2CCN(CCOCCOCCNc3ccc4c(c3)C(=O)N(C3CCC(=O)NC3=O)C4=O)CC2)c(F)cc1Nc1ncc2c(n1)N(C1CCCC1)CC(F)(F)C(=O)N2C` (stereo not drawn) [Compound 50, 4-((9-cyclopentyl-7,7-difluoro-5-methyl-6-oxo-6,7,8,9-tetrahydro-5H-pyrimido[4,5-b][1,4]diazepin-2-yl)amino)-N-(1-(2-(2-(2-((2-(2,6-dioxopiperidin-3-yl)-1,3-dioxoisoindolin-5-yl)amino)ethoxy)ethoxy)ethyl)piperidin-4-yl)-2-fluoro-5-methoxybenzamide] are ≤ 50 nM and ≥ 80%. Turning to `COc1cc(C(=O)N[C@H]2CCN(C(=O)CCCC(=O)N3CCN(c4cccc5c4C(=O)N(C4CCC(=O)NC4=O)C5=O)CC3)C2)c(F)cc1Nc1ncc2c(n1)N(C1CCCC1)CC(F)(F)C(=O)N2C` (stereo partly drawn) [Compound 143, 4-((9-cyclopentyl-7,7-difluoro-5-methyl-6-oxo-6,7,8,9-tetrahydro-5H-pyrimido[4,5-b][1,4]diazepin-2-yl)amino)-N-((3S)-1-(5-(4-(2-(2,6-dioxopiperidin-3-yl)-1,3-dioxoisoindolin-4-yl)piperazin-1-yl)-5-oxopentanoyl)pyrrolidin-3-yl)-2-fluoro-5-methoxybenzamide], the DC50 was ≤ 500 nM. In addition, the greatest degradation seen (Dmax) (read-out: Dmax) is 60 to 80%. `COc1cc(C(=O)NC2CCN(CCOCCOCCOCCOCCNc3cccc4nnn(C5CCC(=O)NC5=O)c(=O)c34)CC2)c(F)cc1Nc1ncc2c(n1)N(C1CCCC1)CC(F)(F)C(=O)N2C` (stereo not drawn) [Compound 78, 4-((9-cyclopentyl-7,7-difluoro-5-methyl-6-oxo-6,7,8,9-tetrahydro-5H-pyrimido[4,5-b][1,4]diazepin-2-yl)amino)-N-(1-(14-((3-(2,6-dioxopiperidin-3-yl)-4-oxo-3,4-dihydrobenzo[d][1,2,3]triazin-5-yl)amino)-3,6,9,12-tetraoxatetradecyl)piperidin-4-yl)-2-fluoro-5-methoxybenzamide]: the DC50 is ≤ 50 nM. The maximal degradation (Dmax) (read-out: Dmax) is ≥ 80%. `COc1cc(C(=O)NC2CCN(CCCCCCCCOc3cc(-c4scnc4C)ccc3CNC(=O)[C@@H]3C[C@@H](O)CN3C(=O)[C@@H](NC(=O)C3(F)CC3)C(C)(C)C)CC2)c(F)cc1Nc1ncc2c(n1)N(C1CCCC1)CC(F)(F)C(=O)N2C` [Example 89, (2S,4R)—N-(2-((8-(4-(4-((9-cyclopentyl-7,7-difluoro-5-methyl-6-oxo-6,7,8,9-tetrahydro-5H-pyrimido[4,5-b][1,4]diazepin-2-yl)amino)-2-fluoro-5-methoxybenzamido)piperidin-1-yl)octyl)oxy)-4-(4-methylthiazol-5-yl)benzyl)-1-((S)-2-(1-fluorocyclopropane-1-carboxamido)-3,3-dimethylbutanoyl)-4-hydroxypyrrolidine-2-carboxamide]: the 50% degradation concentration (DC50) was ≤ 500 nM. Besides, the Dmax (read-out: Dmax) was 60 to 80%. On the same counts, the results for `COc1cc(C(=O)NC2CCN(CCOCCCOCCNc3cccc4c3C(=O)N(C3CCC(=O)NC3=O)C4=O)CC2)c(F)cc1Nc1ncc2c(n1)N(C1CCCC1)CC(F)(F)C(=O)N2C` (stereo not drawn) [Compound 21, 4-((9-cyclopentyl-7,7-difluoro-5-methyl-6-oxo-6,7,8,9-tetrahydro-5H-pyrimido[4,5-b][1,4]diazepin-2-yl)amino)-N-(1-(2-(3-(2-((2-(2,6-dioxopiperidin-3-yl)-1,3-dioxoisoindolin-4-yl)amino)ethoxy)propoxy)ethyl)piperidin-4-yl)-2-fluoro-5-methoxybenzamide] are ≤ 50 nM and ≥ 80%. Turning to `COc1cc(C(=O)NC2CCN(CCOCCOCCOCCOCC(=O)N[C@H](C(=O)N3C[C@H](O)C[C@H]3C(=O)NCc3ccc(-c4scnc4C)cc3)C(C)(C)C)CC2)c(F)cc1Nc1ncc2c(n1)N(C1CCCC1)CC(F)(F)C(=O)N2C` [Example 82], the Dmax result was “C (C: less than 60%)”.

As for `COc1cc(C(=O)NC2CCN(CCOCCCCCCCCOCC(=O)Nc3cccc4c3C(=O)N(C3CCC(=O)NC3=O)C4=O)CC2)c(F)cc1Nc1ncc2c(n1)N(C1CCCC1)CC(F)(F)C(=O)N2C` (stereo not drawn) [Compound 28, 4-((9-cyclopentyl-7,7-difluoro-5-methyl-6-oxo-6,7,8,9-tetrahydro-5H-pyrimido[4,5-b][1,4]diazepin-2-yl)amino)-N-(1-(2-((8-(2-((2-(2,6-dioxopiperidin-3-yl)-1,3-dioxoisoindolin-4-yl)amino)-2-oxoethoxy)octyl)oxy)ethyl)piperidin-4-yl)-2-fluoro-5-methoxybenzamide], the DC50 is ≤ 500 nM. Also, the Dmax (read-out: Dmax) lay within 60 to 80%. `COc1cc(C(=O)NC2CCN(CCOCCOCCOCCOCCNc3ccc4c(c3)C(=O)N(C3CCC(=O)NC3=O)C4=O)CC2)c(F)cc1Nc1ncc2c(n1)N(C1CCCC1)CC(F)(F)C(=O)N2C` (stereo not drawn) [Compound 51, 4-((9-cyclopentyl-7,7-difluoro-5-methyl-6-oxo-6,7,8,9-tetrahydro-5H-pyrimido[4,5-b][1,4]diazepin-2-yl)amino)-N-(1-(14-((2-(2,6-dioxopiperidin-3-yl)-1,3-dioxoisoindolin-5-yl)amino)-3,6,9,12-tetraoxatetradecyl)piperidin-4-yl)-2-fluoro-5-methoxybenzamide]: the 50% degradation concentration (DC50) is ≤ 50 nM. Further, the Dmax (read-out: Dmax) is ≥ 80%. Taken in the same sequence, the figures for `COc1cc(C(=O)NCCOCCNc2cccc3c2C(=O)N(C2CCC(=O)NC2=O)C3=O)c(F)cc1Nc1ncc2c(n1)N(C1CCCC1)CC(F)(F)C(=O)N2C` (stereo not drawn) [Compound 151, 4-((9-cyclopentyl-7,7-difluoro-5-methyl-6-oxo-6,7,8,9-tetrahydro-5H-pyrimido[4,5-b][1,4]diazepin-2-yl)amino)-N-(2-(2-((2-(2,6-dioxopiperidin-3-yl)-1,3-dioxoisoindolin-4-yl)amino)ethoxy)ethyl)-2-fluoro-5-methoxybenzamide] were ≤ 500 nM and 60 to 80%.
